From patent US9216992B2, “Thieno[3,2-c]pyridine potassium channel inhibitors” (Xention Limited, priority 2005, dated 2015)

What was measured:
[1] = molecular target: T1, human Kv1.3 (Homo sapiens, UniProt P22001); test: Kv1.3 Autopatch Electrophysiology; type: cell-based; settings: 1 μM compound, CHO cells stably transfected with human Kv1.3, AutoPatch whole cell mode, room temperature; for inhibition at 1 µM: read-out: Kv 1.3% Inhibition at 1 μM
T1 construct: expressed in transfected cells; host or cells: stably transfected cells
T1 sequence (P22001 whole entry): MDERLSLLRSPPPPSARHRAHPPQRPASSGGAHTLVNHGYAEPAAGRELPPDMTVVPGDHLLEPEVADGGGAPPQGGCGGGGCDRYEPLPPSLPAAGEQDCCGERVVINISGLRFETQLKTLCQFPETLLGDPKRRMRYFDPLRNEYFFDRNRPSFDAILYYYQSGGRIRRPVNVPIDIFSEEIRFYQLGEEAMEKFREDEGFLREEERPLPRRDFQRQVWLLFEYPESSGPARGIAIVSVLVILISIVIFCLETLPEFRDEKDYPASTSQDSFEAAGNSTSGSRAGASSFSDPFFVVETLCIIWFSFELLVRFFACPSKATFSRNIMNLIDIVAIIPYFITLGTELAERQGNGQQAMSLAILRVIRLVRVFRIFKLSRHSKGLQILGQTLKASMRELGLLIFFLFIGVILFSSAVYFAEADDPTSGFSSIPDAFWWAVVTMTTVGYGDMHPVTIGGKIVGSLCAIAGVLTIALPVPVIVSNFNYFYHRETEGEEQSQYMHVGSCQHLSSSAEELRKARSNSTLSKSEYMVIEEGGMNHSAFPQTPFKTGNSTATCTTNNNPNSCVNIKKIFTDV
Protocol: Kv1.3 Autopatch Electrophysiology Method
(§1) Cells stably transfected with cDNA for human Kv1.3 (in pcDNA3.1) were grown in Ex-cell 302 serum-free medium for CHO cells, supplemented with 10 μl/ml [100×] glutamine, 500 μg/ml G418 (gentimicin), and 1% HT supplement (50×, hypoxanthine and thymidine). Compounds were tested on these cells using the AutoPatch technology in whole cell mode.
The external bathing solution contained (in mM): 150 NaCl, 10 KCl, 1 MgCl2, 3 CaCl2, 10 HEPES, pH 7.4 with NaOH. Patch pipettes were filled with an electrode solution of composition (in mM): 100 K-Gluconate, 20 KCl, 1 MgCl2, 1 CaCl2, 10 HEPES, 11 EGTA, 5 ATP—Na2, 2 Glutathione pH 7.2 with KOH.
(§2) Compounds were dissolved in DMSO (100%) and made up in the external bather at a concentration of 1 μM. All experiments were conducted at room temperature (22-24° C.).
(§3) A cell suspension (10 ml), with a density of 100,000 cells/ml, was aliquoted into a 15 ml centrifuge tube and transferred to an incubator (37° C., 5% CO2) for approximately one hour before use. Following 60 min incubation, a tube was taken and centrifuged at 1000 rpm for 4 mins at room temperature. 9.5 ml supernatant was thence discarded, leaving a cell pellet at the bottom of the tube. The pellet was then resuspended using 100 μl of cold (4° C.), filtered (0.22 μm), 0.2% BSA/bather solution (0.02 g BSA/10 ml bather). The bottom of the tube was manually agitated gently until the solution became cloudy with cells. The 100 μl cell resuspension solution was then stored on the bench at 4° C. (using a Peltier-based temperature control device) until used.
(§4) A length of capillary glass (1B150F-4, WPI) was dipped into the cell suspension solution, such that ˜3 cm column of fluid was taken up by capillary action. A Ag/AgCl wire was dropped into the non-dipped end of the capillary also. The outside of the solution-filled end of the capillary was then dried and the capillary was loaded into the AutoPatch™. Borosilicate glass patch pipettes (from 1.5 mm OD, thin-walled filamented, GC150-TF capillary glass, Harvard) were pulled using a DMZ pipette puller (Zeitz Instruments), and were back-filled using the internal pipette solution, being careful that no bubbles remain at the tip or in the body of the pipette. Patch pipettes typically had resistances of 2.3-3.5 MΩ. Once filled, the pipette tip and a proportion of the shaft (˜15 mm) were dipped into Sigmacote (Sigma). The recording pipette was then loaded into the AutoPatch™. Automated patch-clamping was initiated by the operator, but thereafter AutoPatch.exe continued the experiment providing that pre-set conditions and criteria were satisfied.
(§5) Whole cell patch-clamp recordings were made using the AutoPatch™ rig, which incorporated an EPC9 or EPC10 amplifier (HEKA, Germany) under control of Pulse software (v8.54 or v8.76, HEKA, Germany), a motion controller with 2 translators (Newport, UK), valve controller (VF1) and a c-level suction device all at room temperature (22-24° C.). This equipment was completely under the control of AutoPatch.exe and operator intervention was only made when there was a requirement to refill the drug reservoirs or to prevent the loss of a cell due to a technical error. Cells with an Rseries greater than 18 MΩ were discounted from the experiment.
(§6) Qualification stages prior to perfusion and drug application ensured that the observed current met the criteria for the experiment. Only those cells with an IK>400 pA were used for experiments. Cells were continuously perfused with external solution at a flow rate of 1.8-2 ml/minute. […] Online analysis of the hKv1.3 current during the application of compounds was performed by the AutoPatch™ software. Voltage-step protocols and analysis of data was performed as described for conventional electrophysiology.
(§7) Electrophysiology voltage-step protocols and analysis of data was performed as follows. Data was sampled at 5 kHz, and filtered with a −3 dB bandwidth of 2.5 kHz. Cells were held at a voltage of −80 mV. […]

[2] = molecular target: T2, human Kv1.5 (Homo sapiens, UniProt P22460); test: Kv1.5 Autopatch Electrophysiology; type: cell-based; settings: 1 μM compound, CHO cells stably transfected with human Kv1.5, AutoPatch whole cell mode, room temperature; for inhibition at 1 µM: read-out: Kv 1.5% Inhibition at 1 μM
T2 construct: expressed in transfected cells; host or cells: stably transfected cells
T2 sequence (P22460 whole entry): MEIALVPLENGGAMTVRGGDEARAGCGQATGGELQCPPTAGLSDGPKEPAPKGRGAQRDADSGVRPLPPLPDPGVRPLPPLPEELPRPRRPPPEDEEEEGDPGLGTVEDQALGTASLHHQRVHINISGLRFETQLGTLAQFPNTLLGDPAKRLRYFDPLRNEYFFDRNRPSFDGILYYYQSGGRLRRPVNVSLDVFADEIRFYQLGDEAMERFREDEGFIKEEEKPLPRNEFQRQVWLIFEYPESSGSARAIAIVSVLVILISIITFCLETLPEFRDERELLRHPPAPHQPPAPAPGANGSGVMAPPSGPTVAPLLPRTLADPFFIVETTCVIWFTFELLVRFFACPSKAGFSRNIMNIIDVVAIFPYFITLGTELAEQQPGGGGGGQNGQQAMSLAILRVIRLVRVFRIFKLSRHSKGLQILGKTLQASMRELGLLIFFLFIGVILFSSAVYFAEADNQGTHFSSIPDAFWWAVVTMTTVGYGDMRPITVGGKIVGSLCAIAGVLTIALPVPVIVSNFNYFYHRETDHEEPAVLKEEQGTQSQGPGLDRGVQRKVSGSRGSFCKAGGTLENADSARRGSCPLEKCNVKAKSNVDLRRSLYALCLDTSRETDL
Protocol: Kv1.5 Autopatch Electrophysiology Method
as §1, with “Kv1.5” for “Kv1.3”, “pEF6::VA-His-TOPO)” for “pcDNA3.1)”, “5” for “500”, “blasticidin” for “G418 (gentimicin),”
The external bathing solution contained (in mM): 150 NaCl, 10 KCl, 1 MgCl2, 3 CaCl2, 10 HEPES, pH 7.4 with NaOH. Patch pipettes were filled with an electrode solution of composition (in mM): 160 KCl, 0.5 MgCl2, 10 HEPES, 1 EGTA, pH 7.4 with KOH.
as §2, §3, §4, §5
as §6, with “IK>500” for “IK>400”, “hKv1.5” for “hKv1.3”
as §7

Structure (SMILES)	inhibition at 1 µM [1]	inhibition at 1 µM [2]	Kv 1.3% Inhibition at 1 μM [1]	Kv 1.5% Inhibition at 1 μM [2]
c1ccc(-c2csc3ccnc(NCc4ccccn4)c23)cc1 [Example 12, (3-Phenyl-thieno[3,2-c]pyridin-4-yl)-pyridin-2ylmethyl-amine]	46.1%	59.6%	–	–
COc1cccc(-c2csc3ccnc(NCc4cccs4)c23)c1 [Example 13, [3-(3-Methoxy-phenyl)-thieno[3,2-c]pyridin-4-yl]-thiophen-2-ylmethyl-amine]	83.2%	89.4%	–	–
c1ccc(-c2csc3ccnc(NCc4cccs4)c23)cc1 [Example 14, (3-Phenyl-thieno[3,2-c]pyridin-4-yl)-thiophen-2-ylmethyl-amine]	91.2%	81.9%	–	–
Fc1ccc(-c2csc3ccnc(NCc4cccs4)c23)cc1 [Example 15, [3-(4-Fluoro-phenyl)-thieno[3,2-c]pyridin-4-yl]thiophen-2-ylmethyl-amine]	91.9%	87.2%	–	–
c1csc(CNc2nccc3scc(-c4ccc5c(c4)OCO5)c23)c1 [Example 16, (3-Benzo[1,3]dioxol-5-yl-thieno[3,2-c]pyridin-4-yl)-thiophen-2-ylmethyl-amine]	90.3%	81.2%	–	–
Fc1ccc(-c2csc3ccnc(NCc4ccc5c(c4)OCCO5)c23)cc1 [Example 17, (2,3-Dihydro-benzo[1,4]dioxin-6-ylmethyl)-[3-(4-fluoro-phenyl)-thieno[3,2-c]pyridin-4-yl]-amine]	59.6%	86.1%	–	–
c1ccc(-c2csc3ccnc(NCc4ccc5c(c4)OCCO5)c23)cc1 [Example 18, (2,3-Dihydro-benzo[1,4]dioxin-6-ylmethyl)-(3-phenyl-thieno[3,2-c]pyridin-4-yl)-amine]	76.9%	85.3%	–	–
COc1cccc(-c2csc3ccnc(NCc4ccc5c(c4)OCCO5)c23)c1 [Example 19, (2,3-Dihydro-benzo[1,4]dioxin-6-ylmethyl)-[3-(3-methoxy-phenyl)-thieno[3,2-c]pyridin-4-yl)-amine]	73.5%	75.6%	–	–
c1cc2scc(-c3ccc4c(c3)OCO4)c2c(NCc2ccc3c(c2)OCCO3)n1 [Example 20, (3-Benzo[1,3]dioxol-5-yl-thieno[3,2-c]pyridin-4-yl)-(2,3-dihydro-benzo[1,4]dioxin-6-ylmethyl)-amine]	83.5%	90.2%	–	–
c1ccc(CNc2nccc3scc(-c4ccccc4)c23)cc1 [Example 21, Benzyl-(3-phenyl-thieno[3,2-c]pyridin-4-yl)-amine]	61.5%	77.4%	–	–
Fc1ccc(-c2csc3ccnc(NCc4ccccc4)c23)cc1 [Example 22, Benzyl-[3-(4-fluoro-phenyl)-thieno[3,2-c]pyridin-4-yl]-amine]	68.6%	90.2%	–	–
COc1cccc(-c2csc3ccnc(NCc4ccccc4)c23)c1 [Example 23, Benzyl-[3-(3-methoxy-phenyl)-thieno[3,2-c]pyridin-4-yl]-amine]	58%	79.6%	–	–
Cc1ccc(-c2csc3ccnc(NCc4ccccc4)c23)cc1 [Example 24, Benzyl-(3-p-tolyl-thieno[3,2-c]pyridin-4-yl)-amine]	81.2%	90.2%	–	–
c1ccc(CNc2nccc3scc(-c4ccc5c(c4)OCO5)c23)cc1 [Example 25, (3-Benzo[1,3]dioxol-5-yl-thieno[3,2-c]pyridin-4-yl)-benzyl-amine]	58.1%	70.5%	–	–
c1ccc(-c2csc3ccnc(NCc4ccco4)c23)cc1 [Example 26, Furan-2-ylmethyl-(3-phenyl-thieno[3,2-c]pyridin-4-yl)amine]	48.4%	80.4%	–	–
Fc1ccc(-c2csc3ccnc(NCc4ccco4)c23)cc1 [Example 27, [3-(4-Fluoro-phenyl)-thieno[3,2-c]pyridin-4-yl]-furan-2-ylmethyl-amine]	45.9%	70.4%	–	–
COc1cccc(-c2csc3ccnc(NCc4ccco4)c23)c1 [Example 28, Furan-2-ylmethyl-[3-(3-methoxy-phenyl)-thieno[3,2-c]pyridin-4-yl]-amine]	72.7%	91.9%	–	–
Cc1ccc(-c2csc3ccnc(NCc4ccco4)c23)cc1 [Example 29, Furan-2-ylmethyl-(3-p-tolyl-thieno[3,2-c]pyridin-4-yl)-amine]	66.2%	86.1%	–	–
c1ccc(CCCCNc2nccc3scc(-c4ccccc4)c23)cc1 [Example 30, (4-Phenyl-butyl)-(3-phenyl-thieno[3,2-c]pyridin-4-yl)-amine]	–	–	82.8%	65.8%
Cc1cccnc1CNc1nccc2scc(-c3ccccc3)c12 [Example 31, (3-Methyl-pyridin-2-ylmethyl)-(3-phenyl-thieno[3,2-c]pyridin-4-yl)-amine]	–	–	71.8%	78.4%
Cc1ccc(-c2cnc(NCc3ccccc3)c3c(-c4ccc(C)cc4)csc23)cc1 [Example 33, Benzyl-(3,7-di-p-tolyl-thieno[3,2-c]pyridine-4-yl)-amine]	24.4%	39.2%	–	–
Cc1ccc(-c2csc3c(-c4ccccc4)cnc(NCc4ccccc4)c23)cc1 [Example 34, Benzyl-(7-phenyl-3-p-tolyl-thieno[3,2-c]pyridine-4-yl)-amine]	8.1%	25.6%	–	–
Cc1ccc(-c2csc3c(-c4ccccc4O)cnc(NCc4ccccc4)c23)cc1 [Example 35, 2-(4-Benzylamino-3-p-tolyl-thieno[3,2-c]pyridin-7-yl)-phenol]	12.6%	33.3%	–	–
Cc1ccc(-c2csc3c(-c4cccc(O)c4)cnc(NCc4ccccc4)c23)cc1 [Example 36, 3-(4-Benzylamino-3-p-tolyl-thieno[3,2-c]pyridin-7-yl)-phenol]	15.5%	52.4%	–	–
Cc1ccc(-c2csc3c(-c4ccc(O)cc4)cnc(NCc4ccccc4)c23)cc1 [Example 37, 4-(4-Benzylamino-3-p-tolyl-thieno[3,2-c]pyridin-7-yl)-phenol]	15.7%	39.9%	–	–
Cc1ccc(-c2csc3c(-c4cccc(C(=O)O)c4)cnc(NCc4ccccc4)c23)cc1 [Example 38, 3-(4-Benzylamino-3-p-tolyl-thieno[3,2-c]pyridin-7-yl)-benzoic acid]	41.3%	84.8%	–	–
